{"source": "patent US20250333381A1", "about": "“SOLID STATE FORMS” (AMGEN INC., priority 2024, published 2025)", "key": {"[1]": {"assay": "Dissolution profiles vs Napsylate, Tosylate, Besylate salt forms (FIGS. 35(a), 35(b))", "assay_type": "physicochemical", "settings": "for Cmax of dissolution profile: Besylate salts", "description": "(§1) FIGS. 35(a) and 35(b) show dissolution profiles of crystalline HCl Form 1 of Compound A of this disclosure compared to Napsylate, Tosylate, and Besylate salt forms of Compound A. The concentrations of the salts used are roughly double in FIG. 35(b) than in FIG. 35(a).\nas §1, with “A. Besylate, Tosylate Napsylate salt forms of Compound A were prepared as described in WO 2021/092295.” for “A.”"}, "[2]": {"assay": "Dissolution profiles, PION MicroDiss (FIG. 16)", "assay_type": "physicochemical", "settings": "FaSSIF + 0.2% Tween 80, ~37° C.; for Rate and extent of dissolution: compared to amorphous free base", "procedure": "Dissolution profiles were generated comparing the free base anhydrous crystalline form of Compound A, the amorphous free base form of Compound A, the crystalline HCl salt form of Compound A, and the crystalline HBr salt form of Compound A. The dissolution profiles were obtained by employing a PION MicroDiss profiler equipped with Rainbow […] 8-channel in-situ fiber optic UV-vis spectrometer, heating blocks and magnetic stirrers. Dissolution media was equilibrated at 37° C. using Thermo Neslab RTE 7 recirculating chiller prior to addition of samples. Calibration standards were prepared by serial dilution from a methanol stock solution at 12 levels spanning concentrations 0-38 μg/mL. Samples were analyzed simultaneously in duplicate using the parameters described in the table below. [table]"}, "[3]": {"assay": "Solid form screen: thermodynamic stability and form conversion", "assay_type": "physicochemical", "settings": "for Thermodynamic stability among crystalline forms: screening process of the HCl and HBr salts; for Form conversion upon heating: heating (under vacuum)", "procedure": "A solid form screen of HCl and HBr salts of Compound A was conducted. Crystalline salt forms of Compound A were identified, including a crystalline HCl salt form, a crystalline toluene solvate of a crystalline HCl salt form (also referred to herein an HCl salt toluene solvate form of Compound A), a crystalline HBr salt form, a crystalline toluene solvate of a crystalline HBr salt form (also referred to herein an HBr salt toluene solvate form of Compound A). Amorphous salt forms of Compound A were also identified, including an amorphous HCl salt form and an amorphous HBr salt form.\nFurther, the DV S data of both crystalline HCl and HBr salts form of Compound A indicate that these two materials are non-hygroscopic."}, "[4]": {"assay": "Solubility in FaSSIF (shake 2 hr, HPLC)", "assay_type": "physicochemical", "settings": "for Solubility: 2 h", "procedure": "Solubility: Samples were prepared by adding ˜10 mg of the solid to a small centrifuge tube followed by the addition of 1.75 mL freshly prepared FaSSIF solution. The pH of each suspension was measured prior to shaking the samples in an Eppendorf ThermoMixer F1.5 at 37° C. and 1500 rpm for 2 hr. The samples were centrifuged, and the pH of each suspension was measured again at the T=2 hr timepoint. The samples were filtered through Millex 0.20 μm PTFE syringe filters and the filtrates were diluted by a factor of 2 with acetonitrile. Solubility samples were prepared in duplicate. […] The samples were analyzed by HPLC using the method parameters described in the table below. [table] […] The samples were analyzed by HPLC using the method parameters described in the table below. [table]"}, "[5]": {"assay": "Dynamic Vapor Sorption (DVS), hygroscopicity", "assay_type": "physicochemical", "settings": "25° C., 0% RH-90% RH-0% RH", "procedure": "Dynamic Vapor Sorption (DVS): Water sorption data were collected using a DVS Adventure dynamic vapor sorption analyzer (Surface Measurement Systems). The relative humidity at 25° C. was calibrated against the deliquescence point of LiCl, Mg(NO3)2 and KCl. Approximately 5-15 mg were loaded onto a tared metal pan. Data were collected from 0 to 90 to 0% RH in 5% increments at 25° C. Progression to the next stage occurred when the change in mass with respect to time was less than 0.002 per minute or after 180 minutes, whichever occurred first. The minimum stage time was 10 minutes. [table]"}, "HS patients": {"test_system": "HS patients", "settings": "vs. placebo, pre-specified Hurley Stage III (severe HS) patients, 12 weeks; cited from earlier work"}, "C3G patients": {"test_system": "C3G patients", "settings": "compared to placebo, 26 weeks of blinded treatment; cited from earlier work"}}, "note": "“Also recorded” adds a separate entry of the source. Structures can show the parent of a compound that is named as a salt.", "data": [{"smiles": "Cc1ccc(NC(=O)[C@H]2CCCN(C(=O)c3c(C)cccc3F)[C@H]2c2ccc(NC3CCCC3)cc2)cc1C(F)(F)F", "note": "[Crystalline HCl salt form, (2R,3S)-2-(4-(cyclopentylamino)phenyl)-1-(2-fluoro-6-methylbenzoyl)-N-(4-methyl-3-(trifluoromethyl)phenyl)piperidine-3-carboxamide]", "values": [{"measurement": "Tmax of dissolution profile", "setting": "[1]; Besylate salt forms", "value": "higher than the Napsylate, Tosylate, and Besylate salt forms of Compound A"}, {"measurement": "Cmax of dissolution profile", "setting": "[1]; FaSSGF+0.2% tween 80 (pH 1.2)", "value": "highest Cmax of all salts"}, {"measurement": "Cmax of dissolution profile", "setting": "[1]; FaSSIF+0.2% tween 80 (pH 6.5)", "value": "highest Cmax of all salts"}, {"measurement": "Rate and extent of dissolution", "setting": "[2]; listed as crystalline HCl salt form of Compound A", "value": "follows very closely"}, {"measurement": "Cmax of dissolution profile", "setting": "[2]; compared to crystalline HBr salt and amorphous form", "value": "lesser Cmax"}, {"measurement": "Thermodynamic stability among crystalline forms", "setting": "[3]", "value": "most thermodynamically stable crystalline forms identified in the screening process"}, {"measurement": "Solubility relative to Besylate, Tosylate and Napsylate forms", "setting": "[4]", "value": "significantly more soluble"}, {"measurement": "Hygroscopicity (DVS)", "setting": "[5]", "value": "non-hygroscopic"}]}, {"smiles": "Cc1ccc(NC(=O)[C@H]2CCCN(C(=O)c3c(C)cccc3F)[C@H]2c2ccc(NC3CCCC3)cc2)cc1C(F)(F)F", "note": "[Crystalline HBr salt form, (2R,3S)-2-(4-(cyclopentylamino)phenyl)-1-(2-fluoro-6-methylbenzoyl)-N-(4-methyl-3-(trifluoromethyl)phenyl)piperidine-3-carboxamide]", "values": [{"measurement": "Rate and extent of dissolution", "setting": "[2]; listed as crystalline HBr salt form of Compound A", "value": "performed similar in terms of rate and extent of dissolution to the amorphous form of avacopan"}, {"measurement": "Thermodynamic stability among crystalline forms", "setting": "[3]", "value": "most thermodynamically stable crystalline forms identified in the screening process"}, {"measurement": "Solubility relative to Besylate, Tosylate and Napsylate forms", "setting": "[4]", "value": "significantly more soluble"}, {"measurement": "Hygroscopicity (DVS)", "setting": "[5]", "value": "non-hygroscopic"}]}, {"smiles": "Cc1ccc(NC(=O)[C@H]2CCCN(C(=O)c3c(C)cccc3F)[C@H]2c2ccc(NC3CCCC3)cc2)cc1C(F)(F)F", "note": "[Compound A, (2R,3S)-2-(4-(cyclopentylamino)phenyl)-1-(2-fluoro-6-methylbenzoyl)-N-(4-methyl-3-(trifluoromethyl)phenyl)piperidine-3-carboxamide]", "values": [{"measurement": "HiSCR (Hidradenitis Suppurativa Clinical Response)", "setting": "HS patients", "value": "statistically significant dose-dependent improvement in HiSCR"}, {"measurement": "Renal function as measured by eGFR", "setting": "C3G patients", "value": "statistically significant improvement in renal function"}]}, {"smiles": "Cc1ccc(NC(=O)[C@H]2CCCN(C(=O)c3c(C)cccc3F)[C@H]2c2ccc(NC3CCCC3)cc2)cc1C(F)(F)F", "note": "[Free Base Amorphous Form, (2R,3S)-2-(4-(cyclopentylamino)phenyl)-1-(2-fluoro-6-methylbenzoyl)-N-(4-methyl-3-(trifluoromethyl)phenyl)piperidine-3-carboxamide, reference compound]", "values": [{"measurement": "Solubility", "setting": "[4]", "value": 19.44, "unit": "µg/mL"}]}, {"smiles": "Cc1ccc(NC(=O)[C@H]2CCCN(C(=O)c3c(C)cccc3F)[C@H]2c2ccc(NC3CCCC3)cc2)cc1C(F)(F)F", "note": "[HCl salt toluene solvate form of Compound A] [(2R,3S)-2-(4-(cyclopentylamino)phenyl)-1-(2-fluoro-6-methylbenzoyl)-N-(4-methyl-3-(trifluoromethyl)phenyl)piperidine-3-carboxamide]", "values": [{"measurement": "Form conversion upon heating", "setting": "[3]", "value": "convert to the respective HBr and HCl crystalline salt forms of Compound A upon heating; also recorded: converts to the HCl crystalline salt form of Compound A upon heating under vacuum at about 60 °C for about 2 hours"}]}, {"smiles": "Cc1ccc(NC(=O)[C@H]2CCCN(C(=O)c3c(C)cccc3F)[C@H]2c2ccc(NC3CCCC3)cc2)cc1C(F)(F)F", "note": "[Free Base Anhydrous Crystalline Form, (2R,3S)-2-(4-(cyclopentylamino)phenyl)-1-(2-fluoro-6-methylbenzoyl)-N-(4-methyl-3-(trifluoromethyl)phenyl)piperidine-3-carboxamide, reference compound]", "values": [{"measurement": "Solubility", "setting": "[4]", "value": 1.71, "unit": "µg/mL"}]}, {"smiles": "Cc1ccc(NC(=O)[C@H]2CCCN(C(=O)c3c(C)cccc3F)[C@H]2c2ccc(NC3CCCC3)cc2)cc1C(F)(F)F", "note": "[HBr salt toluene solvate form of Compound A] [(2R,3S)-2-(4-(cyclopentylamino)phenyl)-1-(2-fluoro-6-methylbenzoyl)-N-(4-methyl-3-(trifluoromethyl)phenyl)piperidine-3-carboxamide]", "values": [{"measurement": "Form conversion upon heating", "setting": "[3]", "value": "convert to the respective HBr and HCl crystalline salt forms of Compound A upon heating; also recorded: converts to the HCl crystalline salt form of Compound A upon heating under vacuum from about 100 °C to about 125 °C from about 4 to about 24 hours"}]}]}
